A short description of series [1]: HPLC analysis of MbA bread extracts (integrity of MbA after baking). It counts as physicochemical. The conditions noted are these: MbA baked in bread to an internal temperature of 100° C., methanol extract; control = MbA added after baking (MbA*). As for the experimental part: MbA was added as a primary ingredient to a standard bread recipe and to evaluate the integrity of the additive after baking. To this end MbA was added (45 mg) as part of the raw dough (225 g) and separated into 25 g half-servings after kneading. After baking to an internal temperature of 100° C., the samples were extracted with methanol and subject to HPLC and kinetic analysis. In parallel, control samples containing no MbA (MbA−) or MbA added after baking (MbA*) were assessed in an analogous manner.
Two approximately 225 g batches of bread were prepared, one containing MbA the other with no MbA. For each batch: • 1. 5 mL of yeast was activated by mixing with 62.5 mL 43.3° C. water and ¼ tsp sucrose then incubated on the bench top for 10 min. • 2. ½ cup of all-purpose flour was mixed with ½ cup whole-wheat flour and ⅛ tsp NaCl (and 45 mg* MbA for the MbA+ batch only). *The target MbA concentration was 10 mg per serving of bread:
[formula] • 3. The flour mixture was combined with the activated yeast mixture and 25 mL room temperature water then stirred until a dough formed. • 4. Dough kneaded for 10 min by hand. • 5. Dough was rested at room temperature for 30 min. • 6. […]
100 μL of each bread extract was injected on HPLC as described above. MbA was quantified by integrating the MbA on the HPLC trace to standard curve of known MbA amounts.

For series [2], the target named is T1, human pancreatic α-amylase (HPA) (Homo sapiens, UniProt P04746).
T1 sequence (P04746 16-511): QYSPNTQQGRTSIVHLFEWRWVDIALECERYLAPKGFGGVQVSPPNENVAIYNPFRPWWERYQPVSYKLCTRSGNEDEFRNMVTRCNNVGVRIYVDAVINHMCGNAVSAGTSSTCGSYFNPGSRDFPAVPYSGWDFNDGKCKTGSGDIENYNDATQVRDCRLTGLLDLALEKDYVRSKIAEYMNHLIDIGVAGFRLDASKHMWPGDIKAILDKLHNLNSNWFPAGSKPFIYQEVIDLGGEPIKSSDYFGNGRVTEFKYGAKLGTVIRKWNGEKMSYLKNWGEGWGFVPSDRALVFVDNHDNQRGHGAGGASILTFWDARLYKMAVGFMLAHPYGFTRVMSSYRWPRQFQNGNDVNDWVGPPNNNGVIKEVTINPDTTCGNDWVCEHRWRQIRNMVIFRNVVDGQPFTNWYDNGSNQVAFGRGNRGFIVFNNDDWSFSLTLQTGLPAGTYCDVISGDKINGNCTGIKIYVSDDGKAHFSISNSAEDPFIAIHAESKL
In words: HPA inhibition IC50 assay with colorimetric substrate CNPG3. In kind it is biochemical. The settings on record: following standard bread production processes. The protocol:
MbA inhibits the activity of human pancreatic α-amylase (HPA). To determine whether and to what extent the prepared bread extract inhibits HPA, enzymatic assays were performed with the colorimetric substrate 2-chloro-4-nitrophenyl-[…] (CNPG3).
HPA inhibition activity of the bread prepared as described above was determined by monitoring CNPG3 concentration. 20 μL of 200, 100, 40, 20 or 8 mM CNPG3 were combined with 170 μL buffer (50 mM phosphate pH 7.0, 100 mM NaCl) in quartz cuvettes and placed in a CARYXXX UV/Vis spectrophotometer. • 2. To each of the five cuvettes, 10 μL of HPA solution was rapidly added to the 190 μL buffered substrate solution. • 3. Spectrophotometer was set to continuously measure absorbance at 400 nm over 5 min. • 4. […] Rates were calculated from t=1 to t=3 (Δ400 nm/min), plotted against CNPG3 concentration and fit with the Michaelis-Menten equation.
20 μL of 40 mM CNPG was combined with 150 μL buffer and 20 μL MbA− or MbA+ bread extract (either ×100 or ×1000 diluted with water). […] Spectrophotometer was set to continuously measure absorbance at 400 nm over 5 min. • 4. Rates were calculated from t=1 to t=3 (Δ400 nm/min), plotted on a bar graph.
Three sets of bread extractions were done to measure IC50: • A. Bread baked with MbA (MbA+) • B. Bread baked without MbA (MbA−) • C. […] IC50s were measured using the HPA/CNPG3 assay described above: • 1. […]

For `CC1O[C@@H](O[C@@H]2CO[C@@H](Oc3c(O)cc(-c4oc5cc(O)cc(O)c5c(=O)c4O[C@@H]4OC(C)[C@H](O)[C@H](O)C4O[C@@H]4OC(COC(=O)/C=C/c5ccc(O)c(O)c5)[C@@H](O)[C@@H](O)C4O[C@@H]4OC(CO)[C@@H](O)[C@@H](O)C4O)cc3O)C(O)[C@@H]2O)C(O)[C@@H](O)[C@H]1O` (some centres unmarked) [MbA, Montbretin A], the “MbA intact relative to control (HPLC traces)” value in series [1] was 84%. For the same compound, the “activity retained relative to the unbaked controls (MbA*)” value in series [2] is recorded as “greater than 80%”.
